In patent US12679824B2 (Hoffmann-La Roche Inc., priority 2020, dated 2026):

tested on: Acinetobacter baumannii ATCC17961; assay: 90% Growth Inhibitory Concentration (IC90) determination, antimicrobial susceptibility testing; format: cell-based; conditions: Acinetobacter baumannii, ATCC17961, 16 h, Acinetobacter baumannii ATCC17961; Iso-Sensitest broth; growth by optical density at 600 nm over 16h; concentration inhibiting 90% of the growth; read-out: ATCC 17961 IC90
How it was run: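 Broth microdilution in Iso-Sensitest medium, compounds twofold diluted (e.g. 50–0.097 μM final), inoculum ~5×10^(5) CFU/ml, 35±2° C. OD600 was read every 20 min over 16 h. IC90 was derived from growth inhibition during logarithmic growth.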

Row | IC90 [nM] | SMILES
1 | 410 | Cc1cc(-n2cc(-c3cnc(C(=O)Nc4ccc(C(=O)N5CCN(C(=O)C6CCNCC6)CC5)c(Cl)c4)n3C)c(C(F)(F)F)n2)cnc1N [Example Z77, 5-[1-(6-amino-5-methyl-3-pyridyl)-3-(trifluoromethyl)pyrazol-4-yl]-N-[3-chloro-4-[4-(piperidine-4-carbonyl)piperazine-1-carbonyl]phenyl]-1-methyl-imidazole-2-carboxamide]
2 | 360 | Cn1c(-c2cn(-c3ccc(N)cn3)nc2C(F)(F)F)cnc1C(=O)Nc1ccc(C(=O)N[C@@H]2CC[C@@H](NC(=O)[C@@H]3C[C@@H](O)CN3)C2)c(Cl)c1 [Example Z23, 5-[1-(5-amino-2-pyridyl)-3-(trifluoromethyl)pyrazol-4-yl]-N-[3-chloro-4-[[(1R,3R)-3-[[(2S,4R)-4-hydroxyprolyl]amino]cyclopentyl]carbamoyl]phenyl]-1-methyl-imidazole-2-carboxamide]
3 | 500 | Cn1c(-c2cn(-c3ccc(N)cn3)nc2C(F)(F)F)cnc1C(=O)Nc1ccc(C(=O)NCC2CCNCC2)c(Cl)c1 [Example Z3, 5-[1-(5-amino-2-pyridyl)-3-(trifluoromethyl)pyrazol-4-yl]-N-[3-chloro-4-(4-piperidylmethylcarbamoyl)phenyl]-1-methyl-imidazole-2-carboxamide]
4 | 1180 | Cn1c(-c2cn(-c3ccc(N)cn3)nc2C(F)(F)F)cnc1C(=O)Nc1ccc(C(=O)NCC2CC2NC(=O)[C@@H]2C[C@@H](O)CN2)c(Cl)c1 (stereo partly drawn) [Example Z36, 5-[1-(5-amino-2-pyridyl)-3-(trifluoromethyl)pyrazol-4-yl]-N-[3-chloro-4-[[2-[[(2S,4R)-4-hydroxyprolyl]amino]cyclopropyl]methylcarbamoyl]phenyl]-1-methyl-imidazole-2-carboxamide]
5 | 350 | C[C@@H]1CNC[C@H](C)N1C(=O)c1ccc(NC(=O)c2ncc(-c3cn(-c4ccc(N)cn4)nc3C(F)(F)F)n2C)cc1Cl [Example Z54, 5-[1-(5-amino-2-pyridyl)-3-(trifluoromethyl)pyrazol-4-yl]-N-[3-chloro-4-[(2S,6R)-2,6-dimethylpiperazine-1-carbonyl]phenyl]-1-methyl-imidazole-2-carboxamide]
6 | 760 | Cn1c(-c2cn(-c3ccc(N)cn3)nc2C(F)(F)F)cnc1C(=O)Nc1ccc(C(=O)NCCN2CCNCC2)c(Cl)c1 [Example Z65, 5-[1-(5-amino-2-pyridyl)-3-(trifluoromethyl)pyrazol-4-yl]-N-[3-chloro-4-(2-piperazinoethylcarbamoyl)phenyl]-1-methyl-imidazole-2-carboxamide]
7 | 2000 | CN1CCC(C(=O)N2CCN(C(=O)c3ccc(NC(=O)c4ncc(-c5cn(-c6ccc(N)cn6)nc5C#N)n4C)cc3Cl)CC2)CC1 [Example C11, 5-[1-(5-amino-2-pyridyl)-3-cyano-pyrazol-4-yl]-N-[3-chloro-4-[4-(1-methylpiperidine-4-carbonyl)piperazine-1-carbonyl]phenyl]-1-methyl-imidazole-2-carboxamide]
8 | 1400 | Cc1[nH]ncc1-n1cc(-c2cnc(C(=O)Nc3ccc(C(=O)N4CCN(C(=O)C5CCNCC5)CC4)c(Cl)c3)n2C)c(C(F)(F)F)n1 [Example E5, N-[3-chloro-4-[4-(piperidine-4-carbonyl)piperazine-1-carbonyl]phenyl]-1-methyl-5-[1-(5-methyl-1H-pyrazol-4-yl)-3-(trifluoromethyl)pyrazol-4-yl]imidazole-2-carboxamide]
9 | 500 | CN(C)c1ccnc(-n2cc(-c3cnc(C(=O)Nc4ccc(C(=O)N5CCN(C(=O)C6CCNCC6)CC5)c(Cl)c4)n3C)c(C(F)(F)F)n2)n1 [Example A17, N-[3-chloro-4-[4-(piperidine-4-carbonyl)piperazine-1-carbonyl]phenyl]-5-[1-[4-(dimethylamino)pyrimidin-2-yl]-3-(trifluoromethyl)pyrazol-4-yl]-1-methyl-imidazole-2-carboxamide]
10 | 540 | COCCOc1cnc(-n2cc(-c3cnc(C(=O)Nc4ccc(C(=O)N5CCN(C(=O)C6CCNCC6)CC5)c(Cl)c4)n3C)c(C(F)(F)F)n2)nc1 [Example A6, N-[3-chloro-4-[4-(piperidine-4-carbonyl)piperazine-1-carbonyl]phenyl]-5-[1-[5-(2-methoxyethoxy)pyrimidin-2-yl]-3-(trifluoromethyl)pyrazol-4-yl]-1-methyl-imidazole-2-carboxamide]
11 | 310 | Cn1c(-c2cn(-c3ncc(N)cc3F)nc2C(F)(F)F)cnc1C(=O)Nc1ccc(C(=O)N2CCN(C(=O)C3CCNCC3)CC2)c(Cl)c1 [Example Z71, 5-[1-(5-amino-3-fluoro-2-pyridyl)-3-(trifluoromethyl)pyrazol-4-yl]-N-[3-chloro-4-[4-(piperidine-4-carbonyl)piperazine-1-carbonyl]phenyl]-1-methyl-imidazole-2-carboxamide]
12 | 1180 | Cn1c(-c2cn(-c3ccc(N)cn3)nc2C(F)(F)F)cnc1C(=O)Nc1ccc(C(=O)NC2CN(C(=O)[C@@H]3C[C@@H](O)CN3)CC2CO)c(Cl)c1 (stereo partly drawn) [Example Z27, 5-[1-(5-amino-2-pyridyl)-3-(trifluoromethyl)pyrazol-4-yl]-N-[3-chloro-4-[[1-[(2S,4R)-4-hydroxyprolyl]-4-methylol-pyrrolidin-3-yl]carbamoyl]phenyl]-1-methyl-imidazole-2-carboxamide]
13 | 750 | Cn1c(-c2cn(-c3cnc(N)c(F)c3)nc2C(F)(F)F)cnc1C(=O)Nc1ccc(C(=O)N2CCN(C(=O)C3CCNCC3)CC2)c(Cl)c1 [Example Z74, 5-[1-(6-amino-5-fluoro-3-pyridyl)-3-(trifluoromethyl)pyrazol-4-yl]-N-[3-chloro-4-[4-(piperidine-4-carbonyl)piperazine-1-carbonyl]phenyl]-1-methyl-imidazole-2-carboxamide]
14 | 650 | C[C@H]1NCCN(C(=O)c2ccc(NC(=O)c3ncc(-c4cn(-c5ccc(N)cn5)nc4C(F)(F)F)n3C)cc2Cl)[C@H]1C [Example Z68, 5-[1-(5-amino-2-pyridyl)-3-(trifluoromethyl)pyrazol-4-yl]-N-[3-chloro-4-[(2S,3R)-2,3-dimethylpiperazine-1-carbonyl]phenyl]-1-methyl-imidazole-2-carboxamide]
15 | 1200 | Cc1nc(N)ccc1-n1cc(-c2cnc(C(=O)Nc3ccc(C(=O)N4CCN(C(=O)C5CCNCC5)CC4)c(Cl)c3)n2C)c(C(F)(F)F)n1 [Example Z79, 5-[1-(6-amino-2-methyl-3-pyridyl)-3-(trifluoromethyl)pyrazol-4-yl]-N-[3-chloro-4-[4-(piperidine-4-carbonyl)piperazine-1-carbonyl]phenyl]-1-methyl-imidazole-2-carboxamide]
16 | 330 | Cn1c(-c2cn(-c3ccc(N)cn3)nc2C(F)(F)F)cnc1C(=O)Nc1ccc(C(=O)N2CCC(N)CC2)c(Cl)c1 [Example Z20, N-[4-(4-aminopiperidine-1-carbonyl)-3-chloro-phenyl]-5-[1-(5-amino-2-pyridyl)-3-(trifluoromethyl)pyrazol-4-yl]-1-methyl-imidazole-2-carboxamide]
17 | 170 | Cn1c(-c2cn(-c3cc(N)c([N+](=O)[O-])cn3)nc2C(F)(F)F)cnc1C(=O)Nc1ccc(C(=O)N2CCN(C(=O)C3CCNCC3)CC2)c(Cl)c1 [Example Z85, 5-[1-(4-amino-5-nitro-2-pyridyl)-3-(trifluoromethyl)pyrazol-4-yl]-N-[3-chloro-4-[4-(piperidine-4-carbonyl)piperazine-1-carbonyl]phenyl]-1-methyl-imidazole-2-carboxamide]
18 | 1220 | Cn1c(-c2cn(-c3ccc(N)cn3)nc2C(F)(F)F)cnc1C(=O)Nc1ccc(C(=O)NCCNC(=O)[C@@H]2C[C@@H](O)CN2)c(Cl)c1 [Example Z33, 5-[1-(5-amino-2-pyridyl)-3-(trifluoromethyl)pyrazol-4-yl]-N-[3-chloro-4-[2-[[(2S,4R)-4-hydroxyprolyl]amino]ethylcarbamoyl]phenyl]-1-methyl-imidazole-2-carboxamide]
19 | 500 | COCCn1cnc(-n2cc(-c3cnc(C(=O)Nc4ccc(C(=O)N5CCN(C(=O)C6CCNCC6)CC5)c(Cl)c4)n3C)c(C(F)(F)F)n2)c1 [Example E3, N-[3-chloro-4-[4-(piperidine-4-carbonyl)piperazine-1-carbonyl]phenyl]-5-[1-[1-(2-methoxyethyl)imidazol-4-yl]-3-(trifluoromethyl)pyrazol-4-yl]-1-methyl-imidazole-2-carboxamide]
20 | 1160 | Cn1c(-c2cn(-c3ccc(N)cn3)nc2C(F)(F)F)cnc1C(=O)Nc1ccc(C(=O)N2C[C@H]3C[C@@H]2CN3)c(Cl)c1 [Example Z66, 5-[1-(5-amino-2-pyridyl)-3-(trifluoromethyl)pyrazol-4-yl]-N-[3-chloro-4-[(1R,4R)-2,5-diazabicyclo[2.2.1]heptane-2-carbonyl]phenyl]-1-methyl-imidazole-2-carboxamide]
21 | 400 | Cn1c(-c2cn(-c3ccc(N)cn3)nc2C(F)(F)F)cnc1C(=O)Nc1ccc(C(=O)N2CCCNCC2)c(Cl)c1 [Example Z60, 5-[1-(5-amino-2-pyridyl)-3-(trifluoromethyl)pyrazol-4-yl]-N-[3-chloro-4-(1,4-diazepane-1-carbonyl)phenyl]-1-methyl-imidazole-2-carboxamide]
22 | 420 | CN(C(=O)c1ccc(NC(=O)c2ncc(-c3cn(-c4ccc(N)cn4)nc3C(F)(F)F)n2C)cc1Cl)C1CCNCC1 [Example Z13, 5-[1-(5-amino-2-pyridyl)-3-(trifluoromethyl)pyrazol-4-yl]-N-[3-chloro-4-[methyl(4-piperidyl)carbamoyl]phenyl]-1-methyl-imidazole-2-carboxamide]

Row | SMILES | IC90 [nM]
23 | Cn1c(-c2cn(-c3ccc(N)cn3)nc2C(F)(F)F)cnc1C(=O)Nc1ccc(C(=O)N2CC3CCCC(C2)N3)c(Cl)c1 [Example Z53, 5-[1-(5-amino-2-pyridyl)-3-(trifluoromethyl)pyrazol-4-yl]-N-[3-chloro-4-(3,9-diazabicyclo[3.3.1]nonane-3-carbonyl)phenyl]-1-methyl-imidazole-2-carboxamide] | 500
